Experiments:
[1] = system: cell culture (antibody production); assay: Linear regression of antibody production in cell culture assays against relative concentration of components in plant protein hydrolysates; type: cell-based; conditions: linear regression over plant protein hydrolysates, MS Excel SLOPE function
Procedure: Commercial plant protein hydrolysates like SE50MAF-UF, WGE80M-UF, CNE80M-UF, PCE80B obtained from FrieslandCampina Domo, USA were analysed by Liquid chromatography/Mass Spectrometry (LC/MS, LC/MS2) using a Waters Acquity UPLC and a Thermo-Finnigan LTQ mass spectrometer, which consists of an electrospray ionization (ESI) source and linear ion-trap (LIT) mass analyzer. The sample extract was split into two aliquots, dried, then reconstituted in acidic or basic LC-compatible solvents. One aliquot was analyzed using acidic positive ion optimized conditions and the other using basic negative ion optimized conditions in two independent injections using separate dedicated columns. Extracts reconstituted in acidic conditions were gradient eluted using water and methanol both containing 0.1% formic acid, while the basic extracts, which also use water/methanol, contain 6.5 mM ammonium bicarbonate. The MS analysis alternated between MS and data-dependent MS2 scans using dynamic exclusion. Biochemicals were identified by comparison to metabolomic library entries of purified standards or recurrent unknown entities. The combination of chromato-graphic properties and mass spectra gives an indication of a match to the specific compound or an isobaric entity. Thus, an overview of the biochemical components and their relative concentration present in plant protein hydrolysates was generated. Furthermore, all the hydrolysates were tested in the cell culture assays for cell growth and antibody production. […] Using the SLOPE function of Microsoft Excel 2003, the correlation between antibody production and relative concentration of the components was calculated, the results of which are presented in Table 1 below. The higher the positive slope, the higher the importance of a biochemical component in the cell culture. p-values, also calculated using MS Excel's correlation regression function, represent the significance of the values, with the lower the p-value (all between 0 and 1), the more significant the measured value.

[2] = system: IgG expressing CHO cell line (CHO-2: ATCC CRL 11397, producing IgG4); assay: Specific IgG production of CHO cells in supplemented chemically defined medium (sandwich ELISA / AUC); type: cell-based, Chinese hamster; conditions: ratio of cumulative IgG production (mg/ml) and AUC at day 11
Procedure: (§1) The cell culture assay was carried out in commercially available IS CHO-CD medium (Irvine Scientific, Cat. No. 91119). To this media, L-Glutamine (2 mM), pluronic acid, hypoxanthine (100 μM) and thymidine (15 μM) were added. Penicillin and streptomycin were added to prevent any bacterial growth during the growth assay. The media was supplemented with methyl-L-3-phenyl lactate or mucic acid, both purchased from Sigma Aldrich, Germany, in varying concentrations (1×10^−3 to 1×10^−1% (w/v), see Table 2). The supplemented medium was mixed with a vortex mixture, filtered using a 0.22 μm filter and subsequently used in a growth assay.
(§2) An IgG expressing CHO cell line was used (CHO-2: ATCC CRL 11397, producing IgG4). The cell lines were grown in the adherent conditions for a few passages and once confluent, they were transferred to animal-free conditions in the supplemented media described in Example 2.
(§3) To measure growth and production curves, Chinese hamster ovary (CHO) cells were grown in suspension culture in baffled flasks. 20×10^6 cells were transferred in 25 ml media to the baffled flasks. Chemically defined media with and without added alpha-hydroxy acid derivatives were tested. No fresh media was added during the growth assay. Cells were counted using the CEDEX HiRes cell counter (Innovatis, Germany). The cell counts were used to calculate the area under the growth curve and represented as dimensionless area under curve (AUC) values as described in detail in Ling, C. X, Huang, J. and Zhang, H. (2003), International joint conferences on artificial intelligence, pp. 329-341. The supernatant samples were taken every alternate days for the IgG production measurements. IgG production was measured using sandwich ELISA method. The specific IgG production was calculated by taking the ratio of cumulative IgG production (in mg/ml) and AUC measured at day 11 of the growth assay. The cells were visually inspected using a phase contrast microscope (Zeiss Axiovert 25, 400× magnification). […] Only single cells were observed and no aggregation of cells was seen. The cell shape was also positively affected. […] This was in contrast with the observation that a lot of cell aggregates were present in CHO cell cultures grown in chemically defined medium without alpha-hydroxy acid derivatives.

[3] = system: IgG expressing CHO cell line (CHO-2: ATCC CRL 11397, producing IgG4); assay: Cell growth of CHO cells in suspension culture (area under growth curve, CEDEX cell counts); type: cell-based, Chinese hamster; conditions: dimensionless AUC
Procedure: as §1, §2, §3

## CC(C)CC(O)C(=O)O (stereo not drawn) [alpha-hydroxyisocaproic acid]
[1]
  SLOPE (correlation of antibody production and relative concentration of the component): 1654.23

## CC(C)C(O)C(=O)O (stereo not drawn) [alpha-hydroxyisovaleric acid]
[1]
  SLOPE (correlation of antibody production and relative concentration of the component): 2830.96

## O=C(O)[C@@H](O)[C@H](O)[C@H](O)[C@@H](O)C(=O)O [Mucic acid, mucic acid]
[2]; 1 × 10^−1 % w/v added
  Specific IgG production after 11 days: 84.61
[2]; 1 × 10^−2 % w/v added
  Specific IgG production after 11 days: 90.27
[2]; 1 × 10^−3 % w/v added
  Specific IgG production after 11 days: 90.85
[3]; 1 × 10^−1 % w/v added
  Cell growth (area under curve) after 14 days: 48.29
[3]; 1 × 10^−2 % w/v added
  Cell growth (area under curve) after 14 days: 49.64
[3]; 1 × 10^−3 % w/v added
  Cell growth (area under curve) after 14 days: 49.88
[1]
  SLOPE (correlation of antibody production and relative concentration of the component): 2108.11

## COC(=O)[C@@H](O)Cc1ccccc1 [Methyl-L-3-phenyl lactate, methyl-L-3-phenyl lactate]
[2]; 1 × 10^−1 % w/v added
  Specific IgG production after 11 days: 77.80
[3]; 1 × 10^−1 % w/v added
  Cell growth (area under curve) after 14 days: 46.70

Source: US20150017717A1, “CULTURE MEDIUM FOR EUKARYOTIC CELLS” (Friesland Brands B.V., priority 2012, published 2015)
